Values belong to the compound of their own block, whether it stands above or below them.
What was measured:
Mus musculus = test: Anti-inflammatory activity in BALB/c mouse model of colitis assessed as suppression of DSS-induced NF-kappa-B p65 expression in colon tissue at 200 mg/kg, IG for 8 days relative to control; type: functional; settings: po, 192 h, time 8 day
[1] = Inhibition of NF-kappa-B signaling pathway in human HeLa cells assessed as decrease in phosphorylated NF-kappaB p65 level treated for 4 hrs by Western blot analysis; type: cell-based
Escherichia coli = test: Antibacterial activity against Escherichia coli assessed as bacterial growth inhibition incubated for 24 hrs; type: functional, organism-based
Staphylococcus aureus = test: Antibacterial activity against Staphylococcus aureus assessed as bacterial growth inhibition incubated for 24 hrs; type: functional, organism-based
Enterococcus faecalis = test: Antibacterial activity against Enterococcus faecalis assessed as bacterial growth inhibition incubated for 24 hrs; type: functional, organism-based
[2] = tested on: Human immunodeficiency virus 1; test: Antiviral activity against HIV-1 infected in human C8166 cells; type: functional, organism-based; settings: Human immunodeficiency virus 1, C8166
Rattus norvegicus [3] = test: Anti-fibrotic activity in rat model of unilateral ureteral obstruction-induced renal fibrosis assessed as inhibition rate at 0.15 mmol/Kg relative to control; type: functional; settings: Kidney
Rattus norvegicus [4] = test: Anti-fibrotic activity in rat model of bleomycin-induced lung fibrosis assessed as inhibition rate at 250 mg/kg relative to control; type: functional
Rattus norvegicus [5] = test: Anti-fibrotic activity in rat model of isoproterenol-induced myocardial fibrosis assessed as inhibition rate at 15 mg/kg relative to control; type: functional; settings: Myocardium
[6] = Cytotoxicity against rat ASK cells assessed as cell growth inhibition by SRB assay; type: functional; settings: read-out: ED50 (the source's name)
P388 = test: Cytotoxicity against mouse P388 cells assessed as cell growth inhibition by SRB assay; type: functional; settings: read-out: ED50 (the source's name)
KB = test: Cytotoxicity against human KB cells assessed as cell growth inhibition by SRB assay; type: functional; settings: read-out: ED50 (the source's name)
MCF7 [7] = test: Cytotoxicity against human MCF7 cells assessed as cell growth inhibition by SRB assay; type: functional; settings: read-out: ED50 (the source's name)
[8] = Cytotoxicity against human Lu1 cells assessed as cell growth inhibition by SRB assay; type: functional; settings: read-out: ED50 (the source's name)
Col2 = test: Cytotoxicity against human Col2 cells assessed as cell growth inhibition by SRB assay; type: functional; settings: read-out: ED50 (the source's name)
[9] = Antimigratory activity against human LX2 cells assessed as inhibition rate at 5 uM relative to control; type: functional; settings: LX-2
[10] = Inhibition of TGF-beta1 induced mesenchymal transformation in human A549 cells assessed as inhibition rate at 0.63 uM relative to control; type: functional
[11] = Antimigratory activity against Ang II-induced human Cardiac fibroblast cells assessed as inhibition rate at 0.63 uM relative to control; type: functional
K562 = test: Antiproliferative activity against human K562 cells assessed as cell growth inhibition measured after 24 hrs by MTT assay; type: functional, cell-based; settings: K562, 24 h
MCF7 [12] = test: Antiproliferative activity against human MCF7 cells assessed as cell growth inhibition measured after 24 hrs by MTT assay; type: functional, cell-based
Rattus norvegicus [13] = test: Anti-inflammatory activity against egg white-induced paw edema in rat model assessed as detumescence rate measured after 6 hrs relative to control; type: functional
HCT-116 = test: Antiproliferative activity against human HCT-116 cells assessed as cell growth inhibition measured after 24 hrs by MTT assay; type: functional
MGC-803 = test: Antiproliferative activity against human MGC-803 cells assessed as cell growth inhibition measured after 48 hrs by MTT assay; type: functional, cell-based; settings: MGC-803, 48 h
[14] = Antiproliferative activity against human NTUB1 cells assessed as cell growth inhibition measured after 48 hrs by MTT assay; type: functional, cell-based; settings: NTUB1, 48 h
J82 = test: Antiproliferative activity against human J82 cells assessed as cell growth inhibition measured after 48 hrs by MTT assay; type: functional, cell-based; settings: J82, 48 h
[15] = Antiproliferative activity against human HCT cell line assessed as cell growth inhibition measured after 48 hrs by MTT assay; type: functional, cell-based
T-24 = test: Antiproliferative activity against human T24 cells assessed as cell growth inhibition measured after 48 hrs by MTT assay; type: functional, cell-based; settings: T-24, 48 h
NB-4 = test: Antiproliferative activity against human NB-4 cells assessed as cell growth inhibition measured after 48 hrs by MTT assay; type: functional, cell-based; settings: NB-4, 48 h
A549 = test: Antiproliferative activity against human A549 cells assessed as cell growth inhibition measured after 48 hrs by MTT assay; type: functional, cell-based; settings: A549, 48 h
HepG2 = test: Antiproliferative activity against human HepG2 cells assessed as cell growth inhibition measured after 48 hrs by MTT assay; type: functional, cell-based; settings: HepG2, 48 h
MCF7 [16] = test: Antiproliferative activity against human MCF7 cells assessed as cell growth inhibition measured after 48 hrs by MTT assay; type: functional, cell-based; settings: MCF7, 48 h

SMILES: C=C1CCC2[C@](C)(COC(C)=O)[C@H](OC(C)=O)CC[C@@]2(C)[C@@H]1C/C=C1/C(=O)OC[C@H]1OC(C)=O (stereo partly specified)
- inhibition in vivo at 200 mg/kg (Mus musculus): 50.4%

- EC50 [1]: 2000 nM
SMILES: C=C1CC[C@@H]2[C@](C)(CO)[C@H](O)CC[C@@]2(C)[C@@H]1C/C=C1/C(=O)OC[C@@H]1Oc1ccc([N+](=O)[O-])cc1OC

SMILES: C=C1CCC2[C@](C)(CO)C(=O)CC[C@@]2(C)[C@@H]1C/C=C1/C(=O)OC[C@@H]1Oc1cccc2cccnc12 (stereo partly specified)
- IC50 (Escherichia coli): 27900 nM
- IC50 (Staphylococcus aureus): 27600 nM
- IC50 (Enterococcus faecalis): 9100 nM

- IC50 [2]: 40900 nM
SMILES: C=C1CCC2[C@](C)(CO)/C(=N\O)CC[C@@]2(C)[C@@H]1/C=C/C1=CCOC1=O (stereo partly specified)

SMILES: C=C1CCC2[C@](C)(CO)[C@H](O)CC[C@@]2(C)[C@@H]1/C=C/C1=CC(=C\c2ccc(Cl)cc2)/OC1=O (stereo partly specified)
- inhibition in vivo at 150 µmol/kg (Rattus norvegicus [3]): > 85%
- inhibition in vivo at 250 mg/kg (Rattus norvegicus [4]): > 85%
- inhibition in vivo at 15 mg/kg (Rattus norvegicus [5]): > 90%

SMILES: C=C1CC[C@@H]2[C@](C)(CO[Si](C)(C)C(C)(C)C)[C@H](OC(C)=O)CC[C@@]2(C)[C@@H]1CC(OC(C)=O)C1=CCOC1=O (stereo partly specified)
- EC50 [6]: 1980 nM
- EC50 (P388): 550 nM
- EC50 (KB): 2350 nM
- EC50 (MCF7 [7]): 2130 nM
- EC50 [8]: 2090 nM
- EC50 (Col2): 2000 nM

SMILES: C[C@@]12CCC3[C@](C)(CO)[C@H](O)CC[C@@]3(C)[C@@H]1CC(C1=C/C(=C\c3ccc(Cl)cc3)OC1=O)O2 (stereo partly specified)
- inhibition at 5 µM [9]: > 60%
- inhibition at 0.63 µM [10]: > 70%
- inhibition at 0.63 µM [11]: > 65%

SMILES: C=C1CCC2[C@](C)(CO)[C@H](O)CC[C@@]2(C)[C@@H]1C/C=C1/C(=O)OC[C@@H]1Oc1cccc2cccnc12 (stereo partly specified)
- IC50 (Escherichia coli): 21600 nM
- IC50 (Staphylococcus aureus): 37500 nM
- IC50 (Enterococcus faecalis): 6300 nM

- IC50 (K562): 8000 nM
SMILES: C=C1CCC2[C@]3(C)COC(c4ccc(OCc5cn(-c6ccc(C(C)=O)cc6)nn5)cc4)O[C@@H]3CC[C@@]2(C)[C@@H]1C/C=C1/C(=O)OCC1O (stereo partly specified)

- IC50 (K562): 1550 nM
- IC50 (MCF7 [12]; MCF7, 24 h): 2910 nM
SMILES: C=C1CCC2[C@](C)(CO)[C@H](OC(=O)CCC(=O)OC(C)CCOc3no[n+]([O-])c3S(=O)(=O)c3ccccc3)CC[C@@]2(C)[C@@H]1/C=C/C1=CCOC1=O (stereo partly specified)

SMILES: C=C1CCC2[C@](C)(CO)[C@H](O)CC[C@@]2(C)[C@@H]1CCC1=CCOC1=O (stereo partly specified)
- inhibition (INH) (Rattus norvegicus [13]): 87.53%

- GI50 (HCT-116): 4900 nM
- GI50 (MCF7 [12]; MCF7, time 24 hrs): 5300 nM
SMILES: C=C1CCC2[C@]3(C)COC(c4ccccc4Br)O[C@@H]3CC[C@@]2(C)[C@@H]1C/C=C1/C(=O)OC[C@H]1O (stereo partly specified)

- IC50 (MGC-803): 1850 nM
- IC50 (A549): 2030 nM
- IC50 (HepG2): 2310 nM
- IC50 (MCF7 [16]): 1210 nM
SMILES: CC1=C2[C@H]3O[C@]34CC[C@@H]3[C@](C)(COC(=O)c5ccccc5)[C@H](OC(=O)c5ccccc5)CC[C@@]3(C)[C@@H]4[C@H]3O[C@@]23OC1=O
- IC50 [14]: 550 nM
- IC50 (J82): 2040 nM
- IC50 [15]: 940 nM
- IC50 (T-24): 1040 nM
- IC50 (NB-4): 870 nM
